In patent publication US9745246B2, “Method for preparing a salt of acetylsalicylic acid and a basic amino acid” (UNITHER PHARMACEUTICALS, priority 2014, dated 2017):

Key:
[1] = Stability study, Experiment 2: dry product (new synthesis batch) stored at 5° C. under inert atmosphere in the dark for 6 months; assay type: physicochemical; parameters: key to Appearance of the powder / Appearance of the reconstituted solution: C = complies; conditions: storage 5° C.
Description: (§1) The analysis by HPLC is carried out according to the method of the European Pharmacopeia 2.2.29, as indicated below.
(§2) Residual moisture content: halogen loss on desiccation in a desiccator 5 g/90° C./20 min.
(§3) Water content: according to European Pharmacopeia 2.5.12, titration carried out by Karl Fisher titration on 1 g of ASL.
(§4) according to European Pharmacopeia 2.2.3, a solution is reconstituted by dissolving 1 g of ASL in 10 ml of water free of carbon dioxide, with stirring for 30 s. Its appearance is evaluated and its pH is measured.
(§5) Content of each unknown impurity: by HPLC assay, according to the operating protocol described above. The content of each impurity is determined by means of the following equation: […]
A study of stability of the product obtained in example 1 (new synthesis batch) is carried out by storing the dry product under an inert atmosphere and in the dark, at a temperature of 5° C., for a period of 6 months.
At times T=0, T=1 month, T=3 months and T=6 months, a sample of product is taken and subjected to all the tests described in example 2.

[2] = Stability study, Experiment 1: dry product stored at 5° C. under inert atmosphere in the dark for 3 months; assay type: physicochemical; conditions: storage 5° C.; for Stability over time: 3 months
Description: as §1, §2, §3, §4, §5
A study of stability of the product obtained in example 1 is carried out by storing the dry product under an inert atmosphere and in the dark, at a temperature of 5° C., for a period of 3 months.
At times T=0, T=1 month and T=3 months, a sample of product is taken and subjected to all the tests described in example 2.
By way of comparative example, the same experiment is carried out on a product obtained by means of the preparation process of the prior art described in document WO 2011/039432, providing in particular a molar deficiency in DL-lysine (more specifically, with an acetylsalicylic acid/DL lysine molar ratio equal to 1/0.89).

[3] = time 0 months, listed as Method in accordance with the invention
[4] = time 1 month, listed as Method in accordance with the invention
[5] = time 3 months, listed as Method in accordance with the invention

For DL-lysine acetylsalicylate [ASL], which Stability over time ([1]; 6 months) is on record?
Its Stability over time is “remains stable over time”.

What about the “Appearance of the powder” value ([1]; time 0 months) of the same substance?
Its value is “C”.

What about the “Appearance of the reconstituted solution” value ([1]; time 0 months) of the same substance?
The value was “C”.

What about the “HPLC content of acetylsalicylic acid (%)” value ([1]; time 0 months) of the same substance?
The value was 97.5%.

What about the “Impurities (%): Other unknown impurity” value ([1]; time 0 months) of the same substance?
The value was 0.03%.

What about the “Impurities (%): Salicylic acid” value ([1]; time 0 months) of the same substance?
Its value is 0.28%.

What about the “Impurities (%): Sum of the impurities” value ([1]; time 0 months) of the same substance?
Its value is 0.32%.

What about the “Residual moisture content (%)” value ([1]; time 0 months) of the same substance?
Its value is 0.7%.

What about the “Water content (%)” value ([1]; time 0 months) of the same substance?
The value was 0.4%.

And the “pH of the reconstituted solution” value ([1]; time 0 months)?
The value was 5.7.

What about the “Appearance of the powder” value ([1]; time 1 month) of the same substance?
The value was “C”.

And the “Appearance of the reconstituted solution” value ([1]; time 1 month)?
The value was “C”.

And the “HPLC content of acetylsalicylic acid (%)” value ([1]; time 1 month)?
The value was 97.5%.

And the “Impurities (%): Other unknown impurity” value ([1]; time 1 month)?
Its value is 0.03%.

What about the “Impurities (%): Salicylic acid” value ([1]; time 1 month) of the same substance?
Its value is 0.28%.

What about the “Impurities (%): Sum of the impurities” value ([1]; time 1 month) of the same substance?
Its value is 0.33%.

What about the “Residual moisture content (%)” value ([1]; time 1 month) of the same substance?
Its value is 0.5%.

What about the “Water content (%)” value ([1]; time 1 month) of the same substance?
The value was 0.3%.

And the “pH of the reconstituted solution” value ([1]; time 1 month)?
Its value is 5.8.

What about the “Appearance of the powder” value ([1]; time 3 months) of the same substance?
The value was “C”.

What about the “Appearance of the reconstituted solution” value ([1]; time 3 months) of the same substance?
Its value is “C”.

What about the “HPLC content of acetylsalicylic acid (%)” value ([1]; time 3 months) of the same substance?
Its value is 98.1%.

And the “Impurities (%): Other unknown impurity” value ([1]; time 3 months)?
The value was 0.03%.

And the “Impurities (%): Salicylic acid” value ([1]; time 3 months)?
The value was 0.29%.

What about the “Impurities (%): Sum of the impurities” value ([1]; time 3 months) of the same substance?
Its value is 0.33%.

What about the “Residual moisture content (%)” value ([1]; time 3 months) of the same substance?
The value was 0.6%.

What about the “Water content (%)” value ([1]; time 3 months) of the same substance?
Its value is 0.3%.

What about the “pH of the reconstituted solution” value ([1]; time 3 months) of the same substance?
The value was 5.4.

And the “Appearance of the powder” value ([1]; time 6 months)?
The value was “C”.

And the “Appearance of the reconstituted solution” value ([1]; time 6 months)?
The value was “C”.

What about the “HPLC content of acetylsalicylic acid (%)” value ([1]; time 6 months) of the same substance?
Its value is 97.5%.

And the “Impurities (%): Other unknown impurity” value ([1]; time 6 months)?
The value was 0.03%.

And the “Impurities (%): Salicylic acid” value ([1]; time 6 months)?
Its value is 0.30%.

And the “Impurities (%): Sum of the impurities” value ([1]; time 6 months)?
Its value is 0.34%.

And the “Residual moisture content (%)” value ([1]; time 6 months)?
The value was 0.6%.

And the “Water content (%)” value ([1]; time 6 months)?
The value was 0.3%.

What about the “pH of the reconstituted solution” value ([1]; time 6 months) of the same substance?
The value was 6.3.

And the Stability over time ([2]; listed as product obtained by means of the method in accordance with the invention of exam)?
The Stability over time was “remains stable over time”.

What about the “Impurities (%): Other unknown impurity” value ([2]; time 0 months) of the same substance?
Its value is 0.02%.

And the “Impurities (%): Sum of the impurities” value ([2]; time 0 months)?
The value was 0.15%.

What about the “Water content (%)” value ([2]; time 0 months) of the same substance?
The value was 0.4%.

And the “HPLC content of acetylsalicylic acid (%)” value [2, 3]?
The value was 98.3%.

And the “Impurities (%): Salicylic acid” value [2, 3]?
The value was 0.13%.

And the “Residual moisture content (%)” value [2, 3]?
Its value is 0.4%.

What about the “pH of the reconstituted solution” value [2, 3] of the same substance?
Its value is 5.9.

And the “Water content (%)” value ([2]; time 1 month)?
Its value is 0.5%.

What about the “HPLC content of acetylsalicylic acid (%)” value [2, 4] of the same substance?
The value was 98.5%.

And the “Impurities (%): Other unknown impurity” value [2, 4]?
Its value is 0.02%.

And the “Impurities (%): Salicylic acid” value [2, 4]?
The value was 0.17%.

What about the “Impurities (%): Sum of the impurities” value [2, 4] of the same substance?
Its value is 0.22%.

What about the “Residual moisture content (%)” value [2, 4] of the same substance?
Its value is 0.6%.

And the “pH of the reconstituted solution” value [2, 4]?
The value was 5.6.

And the “Water content (%)” value ([2]; time 3 months)?
Its value is 0.3%.

What about the “HPLC content of acetylsalicylic acid (%)” value [2, 5] of the same substance?
Its value is 98.8%.

And the “Impurities (%): Other unknown impurity” value [2, 5]?
Its value is 0.02%.

And the “Impurities (%): Salicylic acid” value [2, 5]?
Its value is 0.21%.

What about the “Impurities (%): Sum of the impurities” value [2, 5] of the same substance?
The value was 0.25%.

And the “Residual moisture content (%)” value [2, 5]?
The value was 0.6%.

What about the “pH of the reconstituted solution” value [2, 5] of the same substance?
Its value is 5.5.

Which results are given for “DL-lysine acetylsalicylate [Process of WO 2011/039432, reference compound]”?
Stability over time ([2]; listed as product obtained by means of a process of the prior art): much less stability over time; HPLC content of acetylsalicylic acid (%) ([2]; time 0 months): 93.6%; Impurities (%): Salicylic acid ([2]; time 0 months): 1.9%; Residual moisture content (%) ([2]; time 0 months): 0.72%; pH of the reconstituted solution ([2]; time 0 months): 5.2; HPLC content of acetylsalicylic acid (%) ([2]; time 1 month): 90.0%; Impurities (%): Other unknown impurity ([2]; time 1 month): 0.026%; Impurities (%): Salicylic acid ([2]; time 1 month): 1.9%; Impurities (%): Sum of the impurities ([2]; time 1 month): 0.09%; Residual moisture content (%) ([2]; time 1 month): 0.61%; pH of the reconstituted solution ([2]; time 1 month): 5.2; HPLC content of acetylsalicylic acid (%) ([2]; time 3 months): 91.6%; Impurities (%): Other unknown impurity ([2]; time 3 months): 0.027%; Impurities (%): Salicylic acid ([2]; time 3 months): 2.0%; Impurities (%): Sum of the impurities ([2]; time 3 months): 0.07%; Residual moisture content (%) ([2]; time 3 months): 0.61%; pH of the reconstituted solution ([2]; time 3 months): 5.1
